Test results: patent US20150335016A1, “Herbicidal Composition Comprising a Cornexistin” (BASF SE, priority 2012, published 2015)

What was measured:
Test in all cases: Greenhouse post-emergence herbicidal test
Type in all cases: in vivo
[1] = tested on: ERICA (Erigeron canadensis)
Description: (§1) The culture containers used were plastic pots containing loamy sand with approximately 2-3.0% of organic matter. The seeds of the test plants were sown separately for each species.
(§2) For the post-emergence treatment, the test plants were grown to a plant height of from 3 to 15 cm, depending on the plant habit, and only then treated with the active compounds which had been suspended or emulsified in water. To this end, the test plants were either sown directly, and grown in the same containers, or they were first grown separately as seedlings and transplanted into the test containers a few days prior to treatment.
(§3) Depending on the species, the plants were kept at 10-25° C. and 20-35° C., respectively.
(§4) The test period extended over 2 to 4 weeks. During this time, the plants were tended and their response to the individual treatments was evaluated.
(§5) Evaluation was carried out using a scale from 0 to 100. 100 means no emergence of the plants, or complete destruction of at least the above-ground parts, and 0 means no damage or normal course of growth. A good herbicidal activity is given at values of at least 70, and very good herbicidal activity is given at values of at least 85.
(§6) In the examples below, using the method of S. R. Colby (1967) “Calculating synergistic and antagonistic responses of herbicide combinations”, Weeds 15, p. 22ff., the value E, which is expected if the activity of the individual active compounds is only additive, was calculated.
(§7) where • X=percent activity using active compound A at an application rate a; • Y=percent activity using active compound B at an application rate b; • E=expected activity (in %) by A+B at application rates a+b.
(§8) If the value found experimentally is higher than the value E calculated according to Colby, a synergistic effect is present.
(§9) For preparation of the mixtures herbicides A were used in form of an aqueous solution comprising 22.5% by weight of the respective herbicide A. The herbicides B were used in form of the respective commercially available formulations as identified below. If appropriate, the adjuvant DASH® HC was added to the mixtures.
(§10) The respective mixtures of active ingredients were introduced into the spray liquor used for applying the active compound. In the examples, the solvent used was water.

[2] = tested on: CHEAL (Chenopodium album)
Description: as §1, §2, §3, §4, §5, §6, §7, §8, §9, §10

[3] = tested on: AMBEL (Ambrosia artemisiifolia)
Description: as §1, §2, §3, §4, §5, §6, §7, §8, §9, §10

[4] = tested on: BRAPP (Urochloa platyphylla)
Description: as §1, §2, §3, §4, §5, §6, §7, §8, §9, §10

[5] = tested on: AMARE (Amaranthus retroflexus)
Description: as §1, §2, §3, §4, §5, §6, §7, §8, §9, §10

[6] = tested on: PANMI (Panicum miliaceum L.)
Description: as §1, §2, §3, §4, §5, §6, §7, §8, §9, §10

[7] = tested on: POLPE (Polygonum persicaria)
Description: as §1, §2, §3, §4, §5, §6, §7, §8, §9, §10

[8] = tested on: DIGSA (Digitaria sanguinales)
Description: as §1, §2, §3, §4, §5, §6, §7, §8, §9, §10

[9] = tested on: COMBE (Commelina benghalensis)
Description: as §1, §2, §3, §4, §5, §6, §7, §8, §9, §10

[10] = tested on: ABUTH (Abutilon theophrasti)
Description: as §1, §2, §3, §4, §5, §6, §7, §8, §9, §10

SETFA (Setaria faberi) = tested on: SETFA (Setaria faberi)
Description: as §1, §2, §3, §4, §5, §6, §7, §8, §9, §10

[11] = Example 5, post-emergence, B.55 2.5 g/ha a.i.
[12] = Example 4, post-emergence; a1) 125 g/ha a.i.
[13] = Example 2, post-emergence; a1) 62.5 g/ha a.i.
[14] = Example 5, post-emergence; a1) 31.25 g/ha a.i.
[15] = Example 1, post-emergence; a1) 125 g/ha a.i.
[16] = Example 2, post-emergence, B.49 75 g/ha a.i.
[17] = Example 1, post-emergence, B.17 62.5 g/ha a.i.
[18] = Example 4, post-emergence, B.30 12.5 g/ha a.i.

## COCc1cnc(C2=NC(C)(C(C)C)C(=O)N2)c(C(=O)O)c1 (stereo not shown) [B.3, imazamox]
[1]; Example 3, post-emergence, heading: +1% by weight DASH HC, B.3 9 g/ha a.i.
  herbicidal activity against ERICA found: 90%

## COC(=O)c1ccccc1S(=O)(=O)NC(=O)Nc1nc(C)nc(OC)n1 [B.55, metsulfuron-methyl]
[2]; [11]
  herbicidal activity against CHEAL found: 40%
[3]; [11]
  herbicidal activity against AMBEL found: 75%

## C/C=C1/CC2=C(C(=O)OC2=O)[C@H](CCC)[C@H](O)C(=O)C[C@@H]1O [a1), cornexistin]
[4]; [12]
  herbicidal activity against BRAPP found: 50%
[2]; [13]
  herbicidal activity against CHEAL found: 90%
[2]; [14]
  herbicidal activity against CHEAL found: 70%
[5]; [13]
  herbicidal activity against AMARE found: 50%
[3]; [15]
  herbicidal activity against AMBEL found: 65%
[3]; [14]
  herbicidal activity against AMBEL found: 80%
[6]; [13]
  herbicidal activity against PANMI found: 80%
[1]; [15]
  herbicidal activity against ERICA found: 40%
[1]; Example 3, post-emergence, heading: +1% by weight DASH HC; a1) 62.5 g/ha a.i.
  herbicidal activity against ERICA found: 60%
[7]; [15]
  herbicidal activity against POLPE found: 60%
[8]; [13]
  herbicidal activity against DIGSA found: 55%
[9]; [12]
  herbicidal activity against COMBE found: 55%
[10]; [15]
  herbicidal activity against ABUTH found: 50%
SETFA (Setaria faberi); [12]
  herbicidal activity against SETFA found: 80%

## CCc1cccc(CC)c1N(COC)C(=O)CCl [B.49, alachlor]
[2]; [16]
  herbicidal activity against CHEAL found: 0%
[5]; [16]
  herbicidal activity against AMARE found: 30%
[6]; [16]
  herbicidal activity against PANMI found: 45%
[8]; [16]
  herbicidal activity against DIGSA found: 40%

## CC(C)N1C(=O)c2ccccc2NS1(=O)=O [B.17, bentazone]
[3]; [17]
  herbicidal activity against AMBEL found: 30%
[1]; [17]
  herbicidal activity against ERICA found: 70%
[7]; [17]
  herbicidal activity against POLPE found: 55%
[10]; [17]
  herbicidal activity against ABUTH found: 40%

## Cn1nc(C(F)(F)F)c(CS(=O)(=O)C2=NOC(C)(C)C2)c1OC(F)F [B.30, pyroxasulfone]
[4]; [18]
  herbicidal activity against BRAPP found: 50%
[9]; [18]
  herbicidal activity against COMBE found: 45%
SETFA (Setaria faberi); [18]
  herbicidal activity against SETFA found: 40%
